In US4420426A, “6-Alpha-halopenicillanic acid 1,1-dioxides” (Pfizer Inc., priority 1980, dated 1983):
In brackets after ≈: the same amount, converted by molar mass.

Experiments:
Test in all cases: In vitro antibacterial activity (MIC)
Assay type in all cases: cell-based
Proteus morgani = tested on: Proteus morgani
Excerpt: (§1) The compound of formula I, wherein R^1 is hydrogen, and salts thereof, are active as antibacterial agents of medium potency both in vitro and in vivo, and the compounds of formula I, wherein R^1 is an ester-forming residue readily hydrolyzable in vivo are active as antibacterial agents of medium potency in vivo.

Escherichia coli = tested on: Escherichia coli
Excerpt: as §1

Providencia = tested on: Providencia
Excerpt: as §1

Enterobacter aerogenes = conditions: Klebsiella aerogenes
Excerpt: as §1

Enterobacter clocae = tested on: Enterobacter clocae
Excerpt: as §1

Salmonella typhimurium = conditions: Salmonella enterica
Excerpt: as §1

Streptococcus pyogenes = tested on: Streptococcus pyogenes
Excerpt: as §1

Pseudomonas aeruginosa = tested on: Pseudomonas aeruginosa
Excerpt: as §1

Staphylococcus aureus = tested on: Staphylococcus aureus
Excerpt: as §1

Proteus mirabilis = tested on: Proteus mirabilis
Excerpt: as §1

Serratia marcescens = tested on: Serratia marcescens
Excerpt: as §1

Staphylococcus epidermis = tested on: Staphylococcus epidermis
Excerpt: as §1

Pasteurella multocida = tested on: Pasteurella multocida
Excerpt: as §1

Streptococcus faecalis = conditions: Enterococcus faecalis
Excerpt: as §1

Citrobacter freundii = tested on: Citrobacter freundii
Excerpt: as §1

Klebsiella pneumoniae = tested on: Klebsiella pneumoniae
Excerpt: as §1

Hemophilus influenzae = conditions: Haemophilus influenzae
Excerpt: as §1

Neisseria gonorrhoeae = tested on: Neisseria gonorrhoeae
Excerpt: as §1

Pseudomonas putida = tested on: Pseudomonas putida
Excerpt: as §1

CC1(C)[C@H](C(=O)O)N2C(=O)C[C@H]2S1(=O)=O [Penicillanic Acid 1,1-Dioxide]
MIC (Proteus morgani): 100 µg/mL (≈ 429 µM)
MIC (Escherichia coli): 50 µg/mL (≈ 214 µM)
MIC (Providencia): 100 µg/mL (≈ 429 µM)
MIC (Enterobacter aerogenes): 25 µg/mL (≈ 107 µM)
MIC (Enterobacter clocae): 100 µg/mL (≈ 429 µM)
MIC (Salmonella typhimurium): 50 µg/mL (≈ 214 µM)
MIC (Streptococcus pyogenes): 100 µg/mL (≈ 429 µM)
MIC (Pseudomonas aeruginosa): 200 µg/mL (≈ 857 µM)
MIC (Staphylococcus aureus): 100 µg/mL (≈ 429 µM)
MIC (Proteus mirabilis): 100 µg/mL (≈ 429 µM)
MIC (Serratia marcescens): 100 µg/mL (≈ 429 µM)
MIC (Staphylococcus epidermis): 200 µg/mL (≈ 857 µM)
MIC (Pasteurella multocida): 50 µg/mL (≈ 214 µM)
MIC (Streptococcus faecalis): 200 µg/mL (≈ 857 µM)
MIC (Citrobacter freundii): 50 µg/mL (≈ 214 µM)
MIC (Klebsiella pneumoniae): 50 µg/mL (≈ 214 µM)
MIC (Hemophilus influenzae): 50 µg/mL (≈ 214 µM)
MIC (Neisseria gonorrhoeae): 0.312 µg/mL (≈ 1.34 µM)
MIC (Pseudomonas putida): 200 µg/mL (≈ 857 µM)
